# Structures can show the parent of a compound that is named as a salt. Where two headings read alike, the source gives them in different places.
# What was measured:
# [1] = system: experimental hepatopathy models prepared by administering carbon tetrachloride; assay: Inhibitory action on hepatopathy in hepatopathy models by carbon tetrachloride (lipid emulsion; serum GPT and GOT); format: in vivo, ddY strain male mice; conditions: Mus musculus, iv, 20 h, i.v., one hour before carbon tetrachloride; for inhibition in vivo at 0.001 mg/kg: dose 1 μg/kg; for inhibition in vivo at 0.01 mg/kg: dose 10 μg/kg; for inhibition in vivo at 0.0001 mg/kg: dose 0.1 μg/kg
# Protocol: Carbon tetrachloride was diluted with olive oil to a concentration of 0.5% when administered. The present isoprenylamine derivatives were formulated into the lipid emulsions according to the method described in Pharmaceutical Example 8 and intravenously administered at a dose of 0.1-10 μg/kg one hour before the administration of carbon tetrachloride. 20 hours after the administration of carbon tetrachloride, blood samples were collected from animals under ether anesthesia and centrifuged. Then, serum GPT and GOT were determined and the respective inhibition rates were calculated on the bases of the serum GPT and GOT values obtained when the present isoprenylamine derivative was not administered being defined as 100, respectively.
# [2] = system: experimental hepatopathy models prepared by D-galactosamine administration; assay: Inhibitory action on hepatopathy in hepatopathy models by D-galactosamine (serum GPT and GOT); format: in vivo, Wistar strain male mice; conditions: iv, 24 h, 2 hours after D-galactosamine; for inhibition in vivo at 0.01 mg/kg / inhibition in vivo at 0.03 mg/kg: lipid emulsion, i.v.; for inhibition in vivo at 0.01 mg/kg: dose 10 μg/kg; for inhibition in vivo at 0.03 mg/kg: dose 30 μg/kg; for inhibition in vivo at 3 mg/kg: dissolved in distilled water, dose 3000 μg/kg
# Protocol: In these tests, GPT (glutamic-pyruvic transaminase) and GOT (glutamic-oxaloacetic transaminase) were determined using kits for the determination of GPT and GOT upon the method by U. Lippi et al., Iatrozyme TA-Lq (available from Iatron Laboratories Inc.), wherein the NADH formed when enzymes act upon substrates can reduce nitrotetrazolium blue (NTB) via 1-methoxy-5-methylphenazinium methylsulfate (1-methoxy PMS) to form formazan, which is then subjected to colorimetric analysis at a wavelength of 560 nm.
# Inhibitory action of lipid emulsions containing the present isoprenylamine derivatives was evaluated by inhibition rates of GPT and GOT in experimental hepatopathy models prepared by D-galactosamine administration.
# The experimental hepatopathy model was prepared by intraperitoneal administration of D-galactosamine at 400 mg/kg to Wistar strain male […] weighing about 170 g. The present isoprenylamine derivative was formulated to a lipid emulsion according to the method described in Pharmaceutical Example 8, and was intravenously administered at a dose of 10-30 μg/kg 2 hours after the administration of D-galactosamine.
# 24 hours after the D-galactosamine administration, blood samples were collected form animals under ether anesthesia and centrifuged. Then, serum GPT and GOT were determined and the respective inhibition rates were calculated on the bases of the serum GPT and GOT values obtained when the present isoprenylamine derivatives were not administered being defined as 100, respectively.
# For comparison, glycyrrhizin ammonium (Tokyo Kasei Co.) dissolved in distilled water was administered in a similar manner to that for the isoprenylamine derivatives, blood sampling and determination were conducted and the serum GPT and GOT inhibition rates were calculated.
smiles,measurement,setting,value
"CC(C)=CCC/C(C)=C/CC/C(C)=C/CC/C(C)=C/CNCc1ccc2c(c1)OCO2 [Compound 1, N-geranylgeranylpiperonylamine hydrochloride]",inhibition in vivo at 0.001 mg/kg,[1]; read-out: GOT inhibition,13%
same,inhibition in vivo at 0.001 mg/kg,[1]; read-out: GPT inhibition,21%
"CC(C)=CCC/C(C)=C/CC/C(C)=C/CC/C(C)=C/CC/C(C)=C/CNCc1ccc2c(c1)OCO2 [Compound 2, N-farnesylgeranylpiperonylamine hydrochloride]",inhibition in vivo at 0.01 mg/kg,[2]; read-out: GOT inhibition,23%
same,inhibition in vivo at 0.01 mg/kg,[2]; read-out: GPT inhibition,23%
"CC(C)=CCC/C(C)=C/CC/C(C)=C/CC/C(C)=C/CC/C(C)=C/CC/C(C)=C/CNCc1ccc2c(c1)OCO2 [Compound 3, N-farnesylfarnesylpiperonylamine hydrochloride]",inhibition in vivo at 0.01 mg/kg,[2]; read-out: GOT inhibition,21%
same,inhibition in vivo at 0.01 mg/kg,[2]; read-out: GPT inhibition,20%
"CC(C)=CCC/C(C)=C/CC/C(C)=C/CC/C(C)=C/CC/C(C)=C/CC/C(C)=C/CC/C(C)=C/CNCc1ccc2c(c1)OCO2 [Compound 4, N-farnesylgeranylgeranylpiperonylamine hydrochloride]",inhibition in vivo at 0.001 mg/kg,[1]; read-out: GOT inhibition,28%
same,inhibition in vivo at 0.001 mg/kg,[1]; read-out: GPT inhibition,22%
same,inhibition in vivo at 0.01 mg/kg,[2]; read-out: GOT inhibition,31%
same,inhibition in vivo at 0.01 mg/kg,[2]; read-out: GPT inhibition,30%
"CC(C)=CCC/C(C)=C/CC/C(C)=C/CC/C(C)=C/CC/C(C)=C/CC/C(C)=C/CC/C(C)=C/CC/C(C)=C/CNCc1ccc2c(c1)OCO2 [Compound 5, N-farnesylfarnesylgeranylpiperonylamine hydrochloride]",inhibition in vivo at 0.01 mg/kg,[2]; read-out: GOT inhibition,29%
same,inhibition in vivo at 0.01 mg/kg,[2]; read-out: GPT inhibition,27%
"CC(C)=CCC/C(C)=C/CC/C(C)=C/CC/C(C)=C/CC/C(C)=C/CC/C(C)=C/CC/C(C)=C/CC/C(C)=C/CC/C(C)=C/CNCc1ccccc1 [Compound 7, N-solanesylbenzylamine hydrochloride]",inhibition in vivo at 0.001 mg/kg,[1]; read-out: GOT inhibition,42%
same,inhibition in vivo at 0.001 mg/kg,[1]; read-out: GPT inhibition,42%
"CC(C)=CCC/C(C)=C/CC/C(C)=C/CC/C(C)=C/CC/C(C)=C/CC/C(C)=C/CC/C(C)=C/CC/C(C)=C/CC/C(C)=C/CNCc1ccc(O)cc1 [Compound 8, N-solanesyl-4-hydroxybenzylamine hydrochloride]",inhibition in vivo at 0.01 mg/kg,[1]; read-out: GOT inhibition,25%
same,inhibition in vivo at 0.01 mg/kg,[1]; read-out: GPT inhibition,22%
"CC(C)=CCC/C(C)=C/CC/C(C)=C/CC/C(C)=C/CC/C(C)=C/CC/C(C)=C/CC/C(C)=C/CC/C(C)=C/CC/C(C)=C/CNCc1ccc(Cl)cc1 [Compound 9, N-solanesyl-4-chlorobenzylamine hydrochloride]",inhibition in vivo at 0.03 mg/kg,[2]; read-out: GOT inhibition,47%
same,inhibition in vivo at 0.03 mg/kg,[2]; read-out: GPT inhibition,53%
"CC(C)=CCC/C(C)=C/CC/C(C)=C/CC/C(C)=C/CC/C(C)=C/CC/C(C)=C/CC/C(C)=C/CC/C(C)=C/CC/C(C)=C/CNCc1ccc(C)cc1 [Compound 10, N-solanesyl-4-methylbenzylamine hydrochloride]",inhibition in vivo at 0.03 mg/kg,[2]; read-out: GOT inhibition,54%
same,inhibition in vivo at 0.03 mg/kg,[2]; read-out: GPT inhibition,63%
"CC(C)=CCC/C(C)=C/CC/C(C)=C/CC/C(C)=C/CC/C(C)=C/CC/C(C)=C/CC/C(C)=C/CC/C(C)=C/CC/C(C)=C/CNCc1ccc(O)c(O)c1 [Compound 11, N-solanesyl-3,4-dihydroxybenzylamine hydrochloride]",inhibition in vivo at 0.03 mg/kg,[2]; read-out: GOT inhibition,41%
same,inhibition in vivo at 0.03 mg/kg,[2]; read-out: GPT inhibition,55%
"COc1cc(CNC/C=C(\C)CC/C=C(\C)CC/C=C(\C)CC/C=C(\C)CC/C=C(\C)CC/C=C(\C)CC/C=C(\C)CC/C=C(\C)CCC=C(C)C)ccc1O [Compound 12, N-solanesyl-4-hydroxy-3-methoxybenzylamine hydrochloride]",inhibition in vivo at 0.03 mg/kg,[2]; read-out: GOT inhibition,42%
same,inhibition in vivo at 0.03 mg/kg,[2]; read-out: GPT inhibition,53%
"COc1ccc(CNC/C=C(\C)CC/C=C(\C)CC/C=C(\C)CC/C=C(\C)CC/C=C(\C)CC/C=C(\C)CC/C=C(\C)CC/C=C(\C)CCC=C(C)C)cc1OC [Compound 13, N-solanesylveratrylamine hydrochloride]",inhibition in vivo at 0.0001 mg/kg,[1]; read-out: GOT inhibition,14%
same,inhibition in vivo at 0.0001 mg/kg,[1]; read-out: GPT inhibition,21%
"COc1c(C)c(CNC/C=C(\C)CC/C=C(\C)CC/C=C(\C)CC/C=C(\C)CC/C=C(\C)CC/C=C(\C)CC/C=C(\C)CC/C=C(\C)CCC=C(C)C)c(OC)c(OC)c1OC [Compound 14, N-solanesyl-2,3,4,5-tetramethoxy-6-methylbenzylamine hydrochloride]",inhibition in vivo at 0.03 mg/kg,[2]; read-out: GOT inhibition,55%
same,inhibition in vivo at 0.03 mg/kg,[2]; read-out: GPT inhibition,64%
"CC(C)=CCC/C(C)=C/CC/C(C)=C/CC/C(C)=C/CC/C(C)=C/CC/C(C)=C/CC/C(C)=C/CC/C(C)=C/CC/C(C)=C/CNCc1ccc2c(c1)OCO2 [Compound 15, N-solanesylpiperonylamine malate]",inhibition in vivo at 0.01 mg/kg,[1]; read-out: GOT inhibition,18%
same,inhibition in vivo at 0.01 mg/kg,[1]; read-out: GPT inhibition,24%
"CC(C)=CCC/C(C)=C/CC/C(C)=C/CC/C(C)=C/CC/C(C)=C/CC/C(C)=C/CC/C(C)=C/CC/C(C)=C/CC/C(C)=C/CNc1ccc2c(c1)OCO2 [Compound 16, N-solanesyl-(3,4-methylenedioxy)aniline hydrochloride]",inhibition in vivo at 0.03 mg/kg,[2]; read-out: GOT inhibition,48%
same,inhibition in vivo at 0.03 mg/kg,[2]; read-out: GPT inhibition,43%
"CC(C)=CCC/C(C)=C/CC/C(C)=C/CC/C(C)=C/CC/C(C)=C/CC/C(C)=C/CC/C(C)=C/CC/C(C)=C/CC/C(C)=C/CNCCc1ccc2c(c1)OCO2 [Compound 17, N-Solanesyl-2-(3,4-methylenedioxyphenyl)ethylamine Hydrochloride]",inhibition in vivo at 0.03 mg/kg,[2]; read-out: GOT inhibition,24%
same,inhibition in vivo at 0.03 mg/kg,[2]; read-out: GPT inhibition,23%
"CC(C)=CCC/C(C)=C/CC/C(C)=C/CC/C(C)=C/CC/C(C)=C/CC/C(C)=C/CC/C(C)=C/CC/C(C)=C/CC/C(C)=C/CNCCCc1ccc2c(c1)OCO2 [Compound 18, N-solanesyl-3-(3,4-methylenedioxyphenyl)propylamine hydrochloride]",inhibition in vivo at 0.03 mg/kg,[2]; read-out: GOT inhibition,22%
same,inhibition in vivo at 0.03 mg/kg,[2]; read-out: GPT inhibition,20%
"CC(C)=CCC/C(C)=C/CC/C(C)=C/CC/C(C)=C/CC/C(C)=C/CC/C(C)=C/CC/C(C)=C/CC/C(C)=C/CC/C(C)=C/CN(C)Cc1ccc2c(c1)OCO2 [Compound 19, N-methyl-N-solanesylpiperonylamine]",inhibition in vivo at 0.001 mg/kg,[1]; read-out: GOT inhibition,43%
same,inhibition in vivo at 0.001 mg/kg,[1]; read-out: GPT inhibition,31%
"CC(C)=CCC/C(C)=C/CC/C(C)=C/CC/C(C)=C/CC/C(C)=C/CC/C(C)=C/CC/C(C)=C/CC/C(C)=C/CC/C(C)=C/CC/C(C)=C/CC/C(C)=C/CNCc1ccc2c(c1)OCO2 [Compound 21, N-undecaprenylpiperonylamine hydrochloride]",inhibition in vivo at 0.001 mg/kg,[1]; read-out: GOT inhibition,38%
same,inhibition in vivo at 0.001 mg/kg,[1]; read-out: GPT inhibition,33%
"CC(C)=CCC/C(C)=C/CC/C(C)=C/CC/C(C)=C/CC/C(C)=C/CC/C(C)=C/CC/C(C)=C/CC/C(C)=C/CC/C(C)=C/CNCc1ccco1 [Compound 24, N-solanesyl-2-furfurylamine hydrochloride]",inhibition in vivo at 0.03 mg/kg,[2]; read-out: GOT inhibition,30%
same,inhibition in vivo at 0.03 mg/kg,[2]; read-out: GPT inhibition,25%
"CC(C)=CCC/C(C)=C/CC/C(C)=C/CC/C(C)=C/CC/C(C)=C/CC/C(C)=C/CC/C(C)=C/CC/C(C)=C/CC/C(C)=C/CNCc1cccs1 [Compound 25, N-solanesyl-2-thienylamine hydrochloride]",inhibition in vivo at 0.03 mg/kg,[2]; read-out: GOT inhibition,32%
same,inhibition in vivo at 0.03 mg/kg,[2]; read-out: GPT inhibition,30%
"CC(C)=CCC/C(C)=C/CC/C(C)=C/CC/C(C)=C/CC/C(C)=C/CC/C(C)=C/CC/C(C)=C/CC/C(C)=C/CC/C(C)=C/CNCc1cccnc1 [Compound 26, N-solanesyl-3-pyridylmethylamine dihydrochloride]",inhibition in vivo at 0.03 mg/kg,[2]; read-out: GOT inhibition,40%
same,inhibition in vivo at 0.03 mg/kg,[2]; read-out: GPT inhibition,35%
"CC1(C)[C@@H](O[C@H]2O[C@H](C(=O)O)[C@@H](O)[C@H](O)[C@H]2O[C@@H]2O[C@H](C(=O)O)[C@@H](O)[C@H](O)[C@H]2O)CC[C@]2(C)[C@H]3C(=O)C=C4[C@@H]5C[C@@](C)(C(=O)O)CC[C@]5(C)CC[C@@]4(C)[C@]3(C)CC[C@@H]12 [Glycyrrhizin ammonium, glycyrrhizin ammonium, reference compound]",inhibition in vivo at 3 mg/kg,[2]; read-out: GOT inhibition,22%
same,inhibition in vivo at 3 mg/kg,[2]; read-out: GPT inhibition,25%
